For test [1], the system named is in vivo model of peritonitis. In words: In vivo model of peritonitis (LPS-induced inflammatory response), IL-1β by ELISA. More on the design: species or system Mice. The procedure: Mice were treated with BANA, Benzoic Acid (50 mg/kg, IP) or the vehicle (100 mM Phosphate buffer 10% DMSO) for 1 hour. Then were injected with LPS (10 mg/kg, IP) or PBS for 2 hours. Mice were collected for peritoneal wash and blood samples were extracted. The peritoneal wash and plasma were stored to measure IL-1β by ELISA. The values are show as mean±SD from three mice per condition and we have used the statistic test one-way ANOVA with Bonferroni.

For test [2], the system named is NF-κB and inflammasome function in macrophages (THP-1 cells). The experiment in a line: IL-1β secretion by ELISA in PMA-differentiated THP-1 macrophages stimulated with LPS and ATP. In kind it is cell-based. The procedure:
In order to compare benzoic acid (BA) and nitroalkene benzoic acid (BANA) over NF-κB and inflammasome function in macrophages, THP-1 cells were differentiated into macrophages with PMA (200 nM, 48 h). Cells were then stimulated with LPS (250 ng/mL) and with ATP (5 mM, 45 minutes). Together with LPS (1st signal, FIG. 6) or ATP (2nd signal, FIG. 7), cells were treated with Benzoic acid (30 μM) or BANA (30 μM). Supernatants were collected and IL-1β secretion was measured by ELISA. […] Thus, BANA inhibits both the generation of the inflammasome, and inhibits the inflammasome itself. Further exemplary studies were performed with Flufenamate (FluFE) and nitroalkene flufenamate (FluFENA). In order to study the effect of Flufenamate (FluFE) and FluFENA over NF-κB and inflammasome function in macrophages, THP-1 cells were differentiated into macrophages with PMA (200 nM, 48 h). Cells were stimulated with LPS (250 ng/mL) and then with ATP (5 mM, 45 minutes). […] Cells were stimulated with LPS (250 ng/mL) and then with ATP (5 mM, 45 minutes). Together with LPS (1st signal, FIG. 10) or ATP (2nd signal, FIG. 11), cells were treated with Ibuprofen (20 μM) or IBUNA ([…] were collected and IL-1β secretion was measured by ELISA.

[3] abbreviates: mice, 50 mg/kg IP 1 hour before LPS 10 mg/kg IP for 2 hours, as opposed to BA.

From patent publication US10906864B2, “Nitroalkene non steroidal anti-inflammatory drugs (NA-NSAIDS) and methods of treating inflammation related conditions” (Institut Pasteur de Montevideo, priority 2017, dated 2021) come the findings set out here.

Regarding `O=C(O)c1ccc(/C=C/[N+](=O)[O-])cc1` [BANA, (E)-4-(2-nitrovinyl)benzoic acid], the “IL-1β release in LPS-induced inflammatory response (FIG. 12 legend)” value in test [1] (in vivo) is given as “in vivo inhibition of IL-1β release”. Further, in test [1] (setting [3]), the “level of IL-1β in blood plasma” value was “marked decrease” and the “level of IL-1β in peritoneal wash” value is reported as “marked decrease”. Also, in test [2] (30 μM, LPS 250 ng/mL then ATP 5 mM 45 minutes, FIG. 6), the “IL-1β secretion, treatment together with LPS (1st signal)” value is given as “inhibition of IL-1β secretion in cells stimulated by LPS”. In addition, the “IL-1β secretion, treatment together with ATP (2nd signal)” value in test [2] (30 μM, LPS 250 ng/mL then ATP 5 mM 45 minutes, FIG. 7) is “inhibition of IL-1β secretion in cells stimulated by ATP”.
For the compound `O=C(O)c1cc(/C=C/[N+](=O)[O-])ccc1Nc1cccc(C(F)(F)F)c1` [FluFENA, (E)-5-(2-nitrovinyl)-2-((3-(trifluoromethyl)phenyl)amino)benzoic acid], in test [2] (FluFE (5 μM) or FluFENA (5), FIG. 8 and FIG. 9), the “IL-1β secretion, treatment together with LPS (1st signal) or ATP (2nd signal), versus Flufenamate (FluFE)” value was “unexpected advantage”.
As to `CC(C)Cc1ccc(C(C)C(=O)O)cc1/C=C/[N+](=O)[O-]` (stereo not shown) [IBUNA, (E)-2-(4-isobutyl-3-(2-nitrovinyl)phenyl)propanoic acid], the “IL-1β secretion, treatment together with LPS (1st signal) or ATP (2nd signal), versus Ibuprofen” value in test [2] (Ibuprofen (20 μM) or IBUNA (20), FIG. 10 and FIG. 11) is “unexpected superiority”.
